Here are results for one substance from patent US20210393742A1, “LONG-ACTING INTERLEUKIN-15 RECEPTOR AGONIST IN COMBINATION WITH ANOTHER PHARMACOLOGICALLY ACTIVE AGENT” (Nektar Therapeutics, priority 2018, published 2021).

Test [1] deals with CD56+ human NK cells. Description: Dose response of human NK cell proliferation in CFSE labeled PBMCs (Example 8). Format: cell-based. As to conditions: 5 days. How it is done:
Human peripheral blood mononuclear cell (PBMCs) labeled with a CFSE preparation were incubated for 5 days in vitro in the presence of increasing doses of rhIL-15 (dose range 1 ng/ml-100 ng/ml, 5 point, 3 fold dilutions) or a long-acting IL-15 receptor agonist (mono(mPEG-butanamide)IL-15) (dose range 10 ng/ml-1000 ng/ml, 5 point, 3 fold dilutions). After the incubation period, cell proliferation as indicated by the decrease of CFSE in the cells that had undergone cell doublings was measured with flow cytometry measuring CFSE levels in CD56+ human NK cells within the PBMCs preparation.

For test [2], the system named is HCT-116 cells. Description: ADCC of cetuximab-coated HCT-116 cells by primed human NK cells (Example 20). Format: cell-based. As to conditions: NK cells primed with 300 ng/mL overnight; cetuximab 30 ug/mL; E:T 10:1, 3 hours. The procedure: Human NK cells were magnetically sorted from normal donor PBMCs using negative selection. NK cells were seeded in a 96-well U-bottom plate at a density of 400,000 cells/well. NK cells were stimulated with mono(methoxyPEG-N-butanamide)40 kD interleukin-15 (Compound 1) (300 ng/mL) (+) or left unstimulated (−) in complete RPMI-1640 media supplemented with 10% fetal bovine serum (FBS) and 1% antibiotic/antimycotic overnight at 37° C. in 5% CO2.
The colonic human HCT-116 cells (ATCC #CCL-247) were cultured McCoy 5A media (ATCC+30-2007) supplemented with 10% fetal bovine serum (FBS) and 1% antibiotic/antimycotic at 37° C. in 5% CO2. HCT-116 cells were subcultured by incubating in 0.25% Trypsin-0.53 mM EDTA for 5 min at 37° C., washed in sterile PBS, resuspended in culture media, counted, and co-cultured with the NK cells using an effector:target (E:T) of 10:1. […] Following incubation, cells were washed in flow staining buffer, Fc-blocked for 15 min at 4° C., and surface-stained (EpCAM, CD45, CD56, CD3-fluorescently conjugated antibodies) for 20 min at 4° C. in the dark. The cells were washed in PBS and incubated in 7-aminoactinomycin (7-AAD) viability stain for 30 minutes at 4° C. before acquiring for flow cytometric analysis using a Fortessa (BD). The percentage of 7-AAD+CD45-EpCAM+ target cells from total cell population is the percentage for dead tumor cells.

In test [3] the test system is human multiple myeloma RPMI-8226 cells. The test can be described thus: ADCC of daratumumab-coated target cells by primed human NK cells (Example 12). Format: cell-based. As to conditions: NK cells primed with 300 ng/mL overnight; daratumumab 1 μg/mL; E:T 10:1, 3 hours. How it is done:
(§1) Human NK cells were magnetically sorted from normal donor PBMCs using negative selection. NK cells were seeded in a 96-well U-bottom plate at a density of 80,000 cells/well (FIG. 15A) OR 400,000 cells/well (FIG. 15B). NK cells were stimulated with 300 ng/mL of a long-acting IL-15 receptor agonist (mono(mPEG-butanamide)IL-15) (+) or left unstimulated (−) in complete RPMI-1640 media supplemented with 10% fetal bovine serum (FBS) and 1% antibiotic/antimycotic overnight at 37° C. in 5% CO2.
The human multiple myeloma RPMI-8226 cells (ATCC #CCL-155) were washed in PBS and stained with 0.15 μM CFSE for 5 min at 37° C. The stimulated NK cells (effector cells) and the daratumumab-coated (+1 μg/mL) CFSE-labeled tumor cells (target cells) were concurrently co-cultured in an E:T ratio of 10:1 for 3 hours at 37° C. in 5% CO2. Following incubation, cells were washed in flow staining buffer, Fc-blocked for 15 min at 4° C., and surface-stained (CD45, CD56, CD3-fluorescently conjugated antibodies). The cells were washed in PBS and incubated in 7-aminoactinomycin (7-AAD) viability stain for 30 minutes at 4° C. before acquiring for flow cytometric analysis using a Fortessa (BD). The percentage of 7-AAD+ CFSE+ target cells from total cell population is the percentage for dead tumor cells.

Test [4] deals with human B cell lymphoma (Daudi) cells. Description: ADCC of rituximab-coated target cells by primed human NK cells (Example 12). Format: cell-based. As to conditions: NK cells primed with 300 ng/mL overnight; rituximab 10 ng/mL; E:T 2:1, 3 hr. How it is done:
as §1
Alternatively, the human B cell lymphoma (Daudi) cells were washed in PBS and stained with 0.3 μM CFSE for 5 min at 37° C. The rituximab-coated (+10 ng/mL) CFSE-labeled tumor (target cells) cells were concurrently co-cultured with the NK cells (effector cells) in an E:T ratio of 2:1 for 3 hr at 37° C. in 5% CO2. Following incubation, cells were washed in flow staining buffer, Fc-blocked for 15 min at 4° C., and surface-stained (CD45, CD56, CD3-fluorescently conjugated antibodies). The cells were washed in PBS and incubated in 7-aminoactinomycin (7-AAD) viability stain for 30 minutes at 4° C. before acquiring for flow cytometric analysis using a Fortessa (BD). The percentage of 7-AAD+ CFSE+ target cells from total cell population is the percentage for dead tumor cells.

Test [5] concerns NCI-N87 cells. Description: Tumor growth inhibition in NCI-N87 gastric carcinoma model (Example 22). As to conditions: 25 days after treatment initiation; trastuzumab 3/1/1 mg/kg IV; Compound 1 0.3 mg/kg IV x3. The test is classed as in vivo, mice. The procedure:
Tumor growth inhibition in inoculated mice was measured 25 days after treatment initiation. Results are provided graphically in FIG. 25.

Test [6] relates to SKOV-3 cells. Description: Tumor growth inhibition in SKOV-3 ovarian carcinoma model (Example 21). The test is classed as in vivo, mice. As to conditions: 35 days after treatment initiation; trastuzumab 13.5 mg/kg IV x6; Compound 1 0.3 mg/kg IV x3. How it is done:
Tumor growth inhibition in inoculated mice was measured 35 days after treatment initiation.

For “mono(methoxyPEG-N-butanamide)40 kD interleukin-15 [Conjugate 1]”, in test [1], the “EC50 (ng/ml)-% proliferation” value stood at 39.04 ng/mL; the Emax-% proliferation is listed as 71.6%; the “potency in inducing human NK cell proliferation, fold less than rhIL-15” value was “approximately 17 fold”. Besides, the “ADCC, % 7-AAD+CD45-EpCAM+ target cells” value in test [2] is reported as “enhance ADCC of cetuximab-coated human solid tumor cells”. Also, in test [3], the “ADCC, % 7-AAD+ target cells” value is given as “enhance ADCC”. The “ADCC, % 7-AAD+ target cells” value in test [4] was “enhance ADCC”. Besides, in test [5], the tumor growth inhibition entry was “no tumor growth inhibition”. Besides, the tumor growth inhibition entry in test [6] is given as “no tumor growth inhibition”.
